Values of other authors, collected in US20240041743A1, “SYNERGISTIC TETRAPEPTIDE COMBINATION” (BASF CORPORATION, priority 2017, published 2024).
Residues, ends and D or L forms follow the SMILES beside them.

What was measured:
skin firmness = details: 3% Dermican
[1] = tested on: skin texture, skin smoothing, firmness and elasticity; details: 3% Syniorage

## CC(=O)N[C@@H](CCC(N)=O)C(=O)N[C@@H](CC(=O)O)C(=O)N[C@H](C(=O)N[C@@H](Cc1c[nH]cn1)C(=O)O)C(C)C [Dermican™, N-Acetyl-Glutaminyl-Aspartyl-Valyl-Histidine] (Ac-QDVH-OH)
Skin firmness
  bi-daily application needed to achieve an improvement of skin firmness: 4 months
Skin firmness; bi-daily application, first 2 months
  improvement on skin firmness after the first 2 months of application: no improvement was observed

## CC(=O)N1CCC[C@H]1C(=O)N1CCC[C@H]1C(=O)N[C@@H](Cc1ccc(O)cc1)C(=O)N[C@@H](CC(C)C)C(=O)O [Syniorage™, N-Acetyl-Prolyl-Prolyl-Tyrosyl-Leucine] (Ac-PPYL-OH)
[1]
  bi-daily application needed to improve skin texture, skin smoothing, and biomechanical properties of firmness and elasticity: 2 months
